US12501895B2, “Composition for cryopreservation of myocardial cells” (BEIJING BAHEAL WISART MEDICAL RESEARCH CO., LTD, priority 2020, dated 2025)

System: human cardiomyocytes
Assay: ex vivo culture of human cardiomyocytes for 7 days, rod-shaped rate (Example 4)
Type: cell-based
Settings: 5-50 μM PAB versus 10 μM BLEB in M199 basal medium, cultured 7 days at 37° C., FIG. 4
Experimental: The purpose of this experiment was to investigate the effects of BLEB and PAB on cell survival rate and morphology during the ex vivo survival of cardiomyocytes, so as to predict the similarity of their roles during cryopreservation and resuscitation of cardiomyocytes.
10% fetal bovine serum, 100 U/ml penicillin and 100 μg/ml streptomycin were added to the M199 medium (purchased from Sigma Inc.), and the resulting medium was used as a basal medium. The experiments were divided into 6 groups, in which DMSO (as a control group), as well as 10 μM BLEB and 5 μM, 10 μM, 20 μM, and 50 μM PAB were added to the basal medium, respectively. The isolated human cardiomyocytes were divided into 6 groups, and the cells were plated on a 48-well cell culture plate coated with 200 μg/ml laminin in advance using 6 media, and the plate was placed and cultured in a cell incubator (with 5% CO2, and a relative saturated humidity of 95%) at 37° C. for 7 days.

SMILES: Cc1ccc2c(c1)C(=O)[C@]1(O)CCN(c3ccc(N)cc3)C1=N2 [PAB, para-aminoblebbistatin]
- rod-shaped rate of cardiomyocytes: close to or even better than the 10 μM BLEB group
